Results as given in PubChem BioAssay AID256 (DTP/NCI, 2004).
Several values for one entry are separate records, joined by “and”; a condition that tells them apart may be missing. Identical values can stand only once. Toxic doses and inconclusive results are not listed. The calls were made as follows: active = survival T/C of 150% or more; inactive = T/C below 125% in these data.

Tested on: CD2F1 mice, L1210 leukemia ip, survival T/C
Assay: NCI In Vivo Anticancer Drug Screen. Data for tumor model L1210 Leukemia (intraperitoneal) in CD2F1 (CDF1) mice
Conditions: higher = longer survival
How it was run: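 Compound-dosed mice with transplantable tumor versus matched vehicle controls; endpoint ratio T/C reported.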

[1] = endpoint: mean survival time, dose: 50.0 mg/kg/injection, schedule: Q04DX002 (ip), vehicle: saline with Tween-80
[2] = endpoint: mean survival time, dose: 100.0 mg/kg/injection, schedule: Q01DX001 (ip), vehicle: saline with Tween-80
[3] = endpoint: mean survival time, dose: 200.0 mg/kg/injection, schedule: Q01DX001 (ip), vehicle: saline with Tween-80
[4] = endpoint: mean survival time, dose: 100.0 mg/kg/injection, schedule: Q01DX009 (ip), vehicle: saline with Tween-80
[5] = endpoint: mean survival time, dose: 100.0 mg/kg/injection, schedule: Q04DX003 (ip), vehicle: saline with Tween-80
[6] = endpoint: mean survival time, dose: 200.0 mg/kg/injection, schedule: Q01DX009 (ip), vehicle: saline with Tween-80
[7] = endpoint: mean survival time, dose: 200.0 mg/kg/injection, schedule: Q04DX003 (ip), vehicle: saline with Tween-80
[8] = endpoint: mean survival time, dose: 400.0 mg/kg/injection, schedule: Q01DX009 (ip), vehicle: saline with Tween-80
[9] = endpoint: mean survival time, dose: 400.0 mg/kg/injection, schedule: Q04DX003 (ip), vehicle: saline with Tween-80
[10] = endpoint: mean survival time, dose: 25.0 mg/kg/injection, schedule: Q04DX003 (ip), vehicle: saline with Tween-80
[11] = endpoint: mean survival time, dose: 6.25 mg/kg/injection, schedule: Q01DX009 (ip), vehicle: saline with Tween-80
[12] = endpoint: mean survival time, dose: 12.5 mg/kg/injection, schedule: Q01DX009 (ip), vehicle: saline with Tween-80
[13] = endpoint: mean survival time, dose: 400.0 mg/kg/injection, schedule: Q01DX001 (ip), vehicle: saline with Tween-80

Measured: T/C

N#CCCCCCCn1cnc2c(N)ncnc21
inactive: [1] 102 % of control | [2] 97 % of control | endpoint: mean survival time, dose: 100.0 mg/kg/injection, schedule: Q04DX002 (ip), vehicle: saline with Tween-80 105 % of control | [3] 97 % of control | endpoint: mean survival time, dose: 200.0 mg/kg/injection, schedule: Q04DX002 (ip), vehicle: saline with Tween-80 90 % of control

CN(C)c1ccc(N=Nc2ccccc2)cc1
inactive: endpoint: mean survival time, dose: 31.25 mg/kg/injection, schedule: Q01DX009 (ip), vehicle: saline with Tween-80 98 % of control | endpoint: mean survival time, dose: 62.5 mg/kg/injection, schedule: Q01DX009 (ip), vehicle: saline with Tween-80 96 % of control | endpoint: mean survival time, dose: 62.5 mg/kg/injection, schedule: Q04DX003 (ip), vehicle: saline with Tween-80 93 % of control | endpoint: mean survival time, dose: 125.0 mg/kg/injection, schedule: Q04DX003 (ip), vehicle: saline with Tween-80 95 % of control

O=C(Nc1cc(C(F)(F)F)ccc1Cl)c1cccc(Cl)c1
inactive: [4] 95 % of control | [5] 102 % of control | [6] 98 % of control | [7] 93 % of control | [8] 98 % of control | [9] 94 % of control

COc1ccc2c[n+](C)c3c4cc(OC)c(OC)cc4ccc3c2c1
inactive: [10] 96 % of control

OCC(O)COCC#Cc1ccccc1 (centres undefined)
inactive: endpoint: mean survival time, dose: 25.0 mg/kg/injection, schedule: Q01DX009 (ip), vehicle: water 97 % of control | endpoint: mean survival time, dose: 50.0 mg/kg/injection, schedule: Q01DX009 (ip), vehicle: water 92 % of control | endpoint: mean survival time, dose: 100.0 mg/kg/injection, schedule: Q01DX009 (ip), vehicle: water 101 % of control | endpoint: mean survival time, dose: 200.0 mg/kg/injection, schedule: Q01DX009 (ip), vehicle: water 101 % of control

CN(C)c1ccc2c(SCC(=O)OCC(=O)[C@@]3(O)CC[C@H]4[C@@H]5CCC6=CC(=O)C=C[C@]6(C)[C@H]5C(=O)C[C@@]43C)c3ccc(N(C)C)cc3nc2c1
inactive: endpoint: median survival time, dose: 25.0 mg/kg/injection, schedule: Q01DX009 (ip), vehicle: Klucel (hydroxypropylcellulose) (HPC) 117 % of control and 105 % of control | endpoint: median survival time, dose: 50.0 mg/kg/injection, schedule: Q01DX009 (ip), vehicle: Klucel (hydroxypropylcellulose) (HPC) 114 % of control and 116 % of control and 108 % of control | endpoint: median survival time, dose: 100.0 mg/kg/injection, schedule: Q01DX009 (ip), vehicle: Klucel (hydroxypropylcellulose) (HPC) 116 % of control and 118 % of control and 123 % of control | endpoint: median survival time, dose: 200.0 mg/kg/injection, schedule: Q01DX009 (ip), vehicle: Klucel (hydroxypropylcellulose) (HPC) 108 % of control | endpoint: median survival time, dose: 400.0 mg/kg/injection, schedule: Q01DX009 (ip), vehicle: Klucel (hydroxypropylcellulose) (HPC) 123 % of control

O=NN(c1ccccc1)c1ccc([N+](=O)[O-])cc1
inactive: [4] 95 % of control | [5] 92 % of control | [6] 90 % of control | [7] 97 % of control | [9] 98 % of control

Nc1ncnc2c1nc(N1CCCC1)n2C1OC(CO)C(O)C1O (centres undefined)
inactive: endpoint: mean survival time, dose: 12.5 mg/kg/injection, schedule: Q01DX005 (ip), vehicle: distilled water + Tween-80 104 % of control and 93 % of control | endpoint: mean survival time, dose: 25.0 mg/kg/injection, schedule: Q01DX005 (ip), vehicle: distilled water + Tween-80 104 % of control and 98 % of control | endpoint: mean survival time, dose: 50.0 mg/kg/injection, schedule: Q01DX005 (ip), vehicle: distilled water + Tween-80 102 % of control and 100 % of control | endpoint: mean survival time, dose: 100.0 mg/kg/injection, schedule: Q01DX005 (ip), vehicle: distilled water + Tween-80 100 % of control and 90 % of control | endpoint: mean survival time, dose: 200.0 mg/kg/injection, schedule: Q01DX005 (ip), vehicle: distilled water + Tween-80 105 % of control and 97 % of control

Cc1c(C)c2c(c(C)c1O)CCC(C)(CCCC(C)CCCC(C)CCCC(C)C)O2 (centres undefined)
inactive: [4] 101 % of control | [6] 95 % of control | endpoint: mean survival time, dose: 400.0 mg/kg/injection, schedule: Q01DX009 (ip), vehicle: Klucel (hydroxypropylcellulose) (HPC) 98 % of control | [8] 101 % of control | endpoint: mean survival time, dose: 800.0 mg/kg/injection, schedule: Q01DX009 (ip), vehicle: Klucel (hydroxypropylcellulose) (HPC) 96 % of control | endpoint: mean survival time, dose: 1200.0 mg/kg/injection, schedule: Q01DX009 (ip), vehicle: Klucel (hydroxypropylcellulose) (HPC) 96 % of control | endpoint: mean survival time, dose: 1600.0 mg/kg/injection, schedule: Q01DX009 (ip), vehicle: Klucel (hydroxypropylcellulose) (HPC) 90 % of control

Cc1ccc(O)c(N)c1
inactive: [5] 93 % of control | [7] 111 % of control

O=C(O)c1cc(C(=O)O)c(-c2ccccc2)c(-c2ccccc2)c1
inactive: endpoint: mean survival time, dose: 100.0 mg/kg/injection, schedule: Q01DX001 (ip), vehicle: saline 97 % of control | endpoint: mean survival time, dose: 200.0 mg/kg/injection, schedule: Q01DX001 (ip), vehicle: saline 97 % of control | endpoint: mean survival time, dose: 400.0 mg/kg/injection, schedule: Q01DX001 (ip), vehicle: saline 101 % of control

O=C(Nc1cccc2ccccc12)OCCCBr
inactive: endpoint: mean survival time, dose: 3.13 mg/kg/injection, schedule: Q01DX009 (ip), vehicle: saline with Tween-80 97 % of control | [11] 103 % of control | [12] 94 % of control and 101 % of control | endpoint: mean survival time, dose: 50.0 mg/kg/injection, schedule: Q01DX009 (ip), vehicle: saline with Tween-80 86 % of control

CC(=O)[O][Hg][c]1c(C)c(C)[c]([Hg][O]C(C)=O)c(C)c1C
inactive: endpoint: mean survival time, dose: 25.0 mg/kg/injection, schedule: Q04DX002 (ip), vehicle: saline with Tween-80 87 % of control | [1] 87 % of control

BrCCN(CCBr)c1ccc2c3c(cccc13)-c1ccccc1-2
inactive: endpoint: mean survival time, dose: 1.5 mg/kg/injection, schedule: Q01DX Z (ip), vehicle: saline 113 % of control | endpoint: mean survival time, dose: 2.0 mg/kg/injection, schedule: Q01DX Z (ip), vehicle: saline 98 % of control | endpoint: mean survival time, dose: 3.2 mg/kg/injection, schedule: Q01DX Z (ip), vehicle: saline 110 % of control | endpoint: mean survival time, dose: 5.0 mg/kg/injection, schedule: Q01DX Z (ip), vehicle: saline 121 % of control

C1CCC(N2CCOCC2)CC1
inactive: endpoint: mean survival time, dose: 25.0 mg/kg/injection, schedule: Q04DX002 (ip), vehicle: saline 105 % of control | endpoint: mean survival time, dose: 50.0 mg/kg/injection, schedule: Q04DX002 (ip), vehicle: saline 102 % of control

COC1CCC2=C(C1)C(=O)CC1c3ccccc3CCN21 (centres undefined) (tested in a mixture with another compound)
inactive: [11] 96 % of control | [12] 98 % of control | endpoint: mean survival time, dose: 25.0 mg/kg/injection, schedule: Q01DX009 (ip), vehicle: saline with Tween-80 96 % of control

O=C1C=CC(=O)C2CC=CCC12 (centres undefined)
inactive: endpoint: mean survival time, dose: 10.0 mg/kg/injection, schedule: Q01DX009 (ip), vehicle: saline with Tween-80 103 % of control | endpoint: mean survival time, dose: 12.5 mg/kg/injection, schedule: Q04DX003 (ip), vehicle: saline with Tween-80 101 % of control | endpoint: mean survival time, dose: 20.0 mg/kg/injection, schedule: Q01DX009 (ip), vehicle: saline with Tween-80 107 % of control | [10] 104 % of control | endpoint: mean survival time, dose: 40.0 mg/kg/injection, schedule: Q01DX009 (ip), vehicle: saline with Tween-80 98 % of control | endpoint: mean survival time, dose: 50.0 mg/kg/injection, schedule: Q04DX003 (ip), vehicle: saline with Tween-80 98 % of control | [5] 100 % of control | [7] 93 % of control | [9] 100 % of control

CCc1ccc(-n2cnc3c(=O)[nH]c(N)nc32)cc1
inactive: [2] 87 % of control | [13] 93 % of control

Nc1nc2c(c(=O)[nH]1)N1C(=O)N(c3ccc(C(=O)NC(CCC(=O)O)C(=O)O)cc3)CC1CN2 (centres undefined)
inactive: endpoint: mean survival time, dose: 100.0 mg/kg/injection, schedule: Q01DX001 (ip), vehicle: sodium bicarbonate 107 % of control | endpoint: mean survival time, dose: 200.0 mg/kg/injection, schedule: Q01DX001 (ip), vehicle: sodium bicarbonate 113 % of control | endpoint: mean survival time, dose: 400.0 mg/kg/injection, schedule: Q01DX001 (ip), vehicle: sodium bicarbonate 109 % of control

CC(=O)NNC(=O)c1ccc(Br)cc1
inactive: [4] 107 % of control | [6] 119 % of control

C#CCOCCCC(=O)O
inactive: endpoint: mean survival time, dose: 100.0 mg/kg/injection, schedule: Q04DX003 (ip), vehicle: acetone 101 % of control | endpoint: mean survival time, dose: 200.0 mg/kg/injection, schedule: Q04DX003 (ip), vehicle: acetone 101 % of control | endpoint: mean survival time, dose: 400.0 mg/kg/injection, schedule: Q04DX003 (ip), vehicle: acetone 95 % of control

Cc1ccc(S(=O)(=O)OCC(O)C(O)C(O)C(C)O)cc1 (centres undefined)
inactive: [2] 98 % of control | [3] 98 % of control | [13] 102 % of control

CCOC(=O)Nc1cc(NCC(O)CN(C)c2ccccc2)c([N+](=O)[O-])c(NC(=O)OCC)n1 (centres undefined)
inactive: endpoint: mean survival time, dose: 100.0 mg/kg/injection, schedule: Q01DX001 (ip), vehicle: carboxymethylcellulose (CMC) 96 % of control | endpoint: mean survival time, dose: 200.0 mg/kg/injection, schedule: Q01DX001 (ip), vehicle: carboxymethylcellulose (CMC) 91 % of control | endpoint: mean survival time, dose: 400.0 mg/kg/injection, schedule: Q01DX001 (ip), vehicle: carboxymethylcellulose (CMC) 87 % of control

CC(=O)/C(N=O)=C(/C)O
inactive: [3] 88 % of control | [13] 92 % of control
